From ChEMBL document CHEMBL5260833, “An overview of quinazolines: Pharmacological significance and recent developments” (Eur J Med Chem, 2018)

tested on: Tobacco mosaic virus; test: Antiviral activity against TMV at 500 microg/ml; format: functional; conditions: dose 500 µg/ml

| SMILES | Activity [%] |
| --- | --- |
| Cc1nc2ccc(Br)cc2c(=O)n1/C=C/c1ccc(Cl)cc1Cl | 54 |
| Cc1nc2ccc(Br)cc2c(=O)n1/C=C/c1cccc(F)c1 | 54 |
| Cc1nc2ccc(Br)cc2c(=O)n1/C=C/c1cccc(Cl)c1 | 54 |
| O=c1c2ccccc2nc(-c2ccccc2)n1/C=C/c1cc(Cl)cc(Cl)c1 | 54 |
| COc1ccc(OC)c(/C=C/n2c(C)nc3ccc(Br)cc3c2=O)c1 | 54 |
| O=c1c2ccccc2nc(-c2ccncc2)n1/C=C/c1ccc(F)cc1 | 54 |
| O=c1c2ccccc2nc(-c2ccccc2)n1/C=C/c1cccc(C(F)(F)F)c1 | 54 |
| O=c1c2ccccc2nc(-c2ccccc2)n1/C=C/c1cccc(Cl)c1Cl | 54 |
| Cc1nc2ccc(Br)cc2c(=O)n1/C=C/c1ccc(F)cc1 | 54 |
| Cc1nc2ccccc2c(=O)n1/C=C/c1cccc(Cl)c1Cl | 54 |
| Cc1nc2ccc(Br)cc2c(=O)n1/C=C/c1c(Cl)cccc1Cl | 54 |
| COc1ccc(/C=C/n2c(C)nc3ccc(Br)cc3c2=O)cc1OC | 54 |
| O=c1c2ccccc2nc(-c2ccncc2)n1/C=C/c1ccccc1 | 54 |
| Cc1nc2ccc(Br)cc2c(=O)n1/C=C/c1ccc(F)c(F)c1 | 54 |
| Cc1nc2ccc(Br)cc2c(=O)n1/C=C/c1ccccc1F | 54 |
| O=c1c2ccccc2nc(-c2ccncc2)n1/C=C/c1cccc(Cl)c1Cl | 54 |

| SMILES | Activity [%] |
| --- | --- |
| Cc1nc2ccc(Br)cc2c(=O)n1/C=C/c1ccccc1C(F)(F)F | 54 |
| Cc1nc2ccc(Br)cc2c(=O)n1/C=C/c1ccccc1O | 54 |
| O=c1c2ccccc2nc(-c2ccccc2)n1/C=C/c1c(Cl)cccc1Cl | 54 |
| Cc1nc2ccc(Br)cc2c(=O)n1/C=C/c1cc(O)cc(Cl)c1 | 54 |
| Cc1nc2ccc(Br)cc2c(=O)n1/C=C/c1cc([N+](=O)[O-])ccc1Cl | 54 |
| Cc1nc2ccc(Br)cc2c(=O)n1/C=C/c1ccc(Cl)c([N+](=O)[O-])c1 | 54 |
| O=c1c2ccccc2nc(-c2ccccc2)n1/C=C/c1ccc(C(F)(F)F)cc1 | 54 |
| Cc1nc2ccc(Br)cc2c(=O)n1/C=C/c1cccc([N+](=O)[O-])c1 | 54 |
| O=c1c2ccccc2nc(-c2ccncc2)n1/C=C/c1ccccc1Cl | 54 |
| COc1ccc(/C=C/n2c(C)nc3ccc(Br)cc3c2=O)c(OC)c1 | 54 |
| O=c1c2ccccc2nc(-c2ccccc2)n1/C=C/c1cccc(Cl)c1 | 54 |
| O=c1c2ccccc2nc(-c2ccccc2)n1/C=C/c1ccc(Cl)c([N+](=O)[O-])c1 | 54 |
| COc1cccc(/C=C/n2c(C)nc3ccc(Br)cc3c2=O)c1OC | 54 |
| O=c1c2ccccc2nc(-c2ccccc2)n1/C=C/c1ccc(F)c(F)c1 | 54 |
| Cc1nc2ccc(Br)cc2c(=O)n1/C=C/c1cccc(C(F)(F)F)c1F | 54 |

tested on: Rattus norvegicus; test: Anticonvulsant activity in rat at 50 mg/kg, ip measured after 1 hrs by MES test relative to control; format: functional; conditions: not given

| SMILES | Activity [%] |
| --- | --- |
| CCCC(CCC)C(=O)[O-].[Na+] [VALPROATE SODIUM] | 80 |
| CCOC(=O)CNn1c(C)nc2ccc(I)cc2c1=O | 10 |
| Cc1nc2ccc(I)cc2c(=O)n1NCC(=O)NNC(=S)NCC1C(=O)NC(=O)NC1=O | 40 |
| Cc1nc2c(Br)cc(Br)cc2c(=O)n1NCC(=O)NNC(=S)NCC1C(=O)NC(=S)NC1=O | 40 |
| CCOC(=O)CNn1c(C)nc2c(Br)cc(Br)cc2c1=O | 10 |

tested on: Rattus norvegicus; test: Anticonvulsant activity in ip dosed albino rat measured after 1 hrs; format: functional; conditions: not given

| SMILES | Activity [%] |
| --- | --- |
| Cc1nc2ccc(Br)cc2c(=O)n1NC(=O)/C=C/c1ccc(N(C)C)cc1 | 50 |
| Cc1nc2ccccc2c(=O)n1NC(=O)/C=C/c1ccc(O)cc1 | 50 |
| Cc1nc2ccccc2c(=O)n1NC1=NOC(c2ccc(N(C)C)cc2)C1 (configuration not stated) | 50 |
| CC(=O)Nn1c(C)nc2ccc(Br)cc2c1=O | 50 |
| COc1cc(/C=C/C(=O)Nn2c(C)nc3ccc(Br)cc3c2=O)ccc1O | 50 |
| CC(=O)N1N=C(Nn2c(C)nc3ccc(Br)cc3c2=O)CC1c1ccccc1 (configuration not stated) | 50 |
| Cc1nc2ccc(Br)cc2c(=O)n1NC(=O)/C=C/c1ccccc1 | 50 |
| COc1cc(C2CC(Nn3c(C)nc4ccc(Br)cc4c3=O)=NO2)ccc1O (configuration not stated) | 50 |
| CC(=O)N1N=C(Nn2c(C)nc3ccccc3c2=O)CC1c1ccc(O)cc1 (configuration not stated) | 50 |
| Cc1nc2ccccc2c(=O)n1NC(=O)/C=C/c1ccc(N(C)C)cc1 | 50 |
| Cc1nc2ccccc2c(=O)n1NC1=NOC(c2ccccc2)C1 (configuration not stated) | 50 |
| CC(=O)N1N=C(Nn2c(C)nc3ccccc3c2=O)CC1c1ccccc1 (configuration not stated) | 50 |
| COc1ccc(/C=C/C(=O)Nn2c(C)nc3ccccc3c2=O)cc1 | 50 |
| COc1cc(C2CC(Nn3c(C)nc4ccc(Br)cc4c3=O)=NN2C(C)=O)ccc1O (configuration not stated) | 50 |
| COc1cc(/C=C/C(=O)Nn2c(C)nc3ccccc3c2=O)ccc1O | 50 |
| CC(=O)N1N=C(Nn2c(C)nc3ccccc3c2=O)CC1c1ccc(N(C)C)cc1 (configuration not stated) | 50 |

| SMILES | Activity [%] |
| --- | --- |
| CC(=O)N1N=C(Nn2c(C)nc3ccc(Br)cc3c2=O)CC1c1ccc(N(C)C)cc1 (configuration not stated) | 50 |
| Cc1nc2ccc(Br)cc2c(=O)n1NC(=O)/C=C/c1ccc(O)cc1 | 50 |
| Cc1nc2ccccc2c(=O)n1NC(=O)/C=C/c1ccccc1 | 50 |
| COc1cc(C2CC(Nn3c(C)nc4ccccc4c3=O)=NO2)ccc1O (configuration not stated) | 50 |
| COc1cc(C2CC(Nn3c(C)nc4ccccc4c3=O)=NN2C(C)=O)ccc1O (configuration not stated) | 50 |
| Cc1nc2ccc(Br)cc2c(=O)n1NC1=NOC(c2ccc(O)cc2)C1 (configuration not stated) | 50 |
| CC(=O)N1N=C(Nn2c(C)nc3ccc(Br)cc3c2=O)CC1c1ccc(O)cc1 (configuration not stated) | 50 |
| Cc1nc2ccc(Br)cc2c(=O)n1NC1=NOC(c2ccc(N(C)C)cc2)C1 (configuration not stated) | 50 |
| COc1ccc(C2CC(Nn3c(C)nc4ccccc4c3=O)=NN2C(C)=O)cc1 (configuration not stated) | 50 |
| Cc1nc2ccc(Br)cc2c(=O)n1NC1=NOC(c2ccccc2)C1 (configuration not stated) | 50 |
| CC(=O)Nn1c(C)nc2ccccc2c1=O | 50 |
| COc1ccc(C2CC(Nn3c(C)nc4ccc(Br)cc4c3=O)=NO2)cc1 (configuration not stated) | 50 |
| COc1ccc(/C=C/C(=O)Nn2c(C)nc3ccc(Br)cc3c2=O)cc1 | 50 |
| Cc1nc2ccccc2c(=O)n1NC1=NOC(c2ccc(O)cc2)C1 (configuration not stated) | 50 |
| COc1ccc(C2CC(Nn3c(C)nc4ccc(Br)cc4c3=O)=NN2C(C)=O)cc1 (configuration not stated) | 50 |
| COc1ccc(C2CC(Nn3c(C)nc4ccccc4c3=O)=NO2)cc1 (configuration not stated) | 50 |

tested on: Rattus norvegicus; test: Anticonvulsant activity in PTZ induced rat at 50 mg/kg, sc measured after 2 to 4 mins relative to control; format: functional; conditions: time 2-4 min

| SMILES | Activity [%] |
| --- | --- |
| CCCC(CCC)C(=O)[O-].[Na+] [VALPROATE SODIUM] | 80 |
| CCOC(=O)CNn1c(C)nc2ccc(I)cc2c1=O | 10 |
| Cc1nc2ccc(I)cc2c(=O)n1NCC(=O)NNC(=S)NCC1C(=O)NC(=O)NC1=O | 40 |
| Cc1nc2c(Br)cc(Br)cc2c(=O)n1NCC(=O)NNC(=S)NCC1C(=O)NC(=S)NC1=O | 40 |
| CCOC(=O)CNn1c(C)nc2c(Br)cc(Br)cc2c1=O | 10 |

tested on: Rattus norvegicus; test: Antiinflammatory activity in carrageenan induced rat at assessed as reduction in paw edema 50 mg/kg, po relative to control; format: functional; parameters: scale not given: the % may be the effect or the level left; conditions: not given

| SMILES | Activity [%] |
| --- | --- |
| COc1cc(/C=C/C(=O)NN2C(=O)CC2c2nc3ccc(Br)cc3c(=O)n2-c2cccc(Cl)c2)ccc1O (configuration not stated) | 10.28 |
| O=c1c2cc(Br)ccc2nc(CBr)n1-c1ccccc1 | 10.28 |
| COc1cc(/C=C/C(=O)NN2C(=O)CC2c2nc3ccccc3c(=O)n2-c2ccccc2Cl)ccc1O (configuration not stated) | 10.28 |
| O=c1c2cc(Br)ccc2nc(CBr)n1-c1cccc(Cl)c1 | 10.28 |

tested on: Rattus norvegicus; test: Anticonvulsant activity in albino rat at 30 mg/kg, ip measured after 1 hrs by MES test; format: functional; conditions: not given

| SMILES | inhibition in vivo at 30 mg/kg [%] |
| --- | --- |
| Cc1nc2ccc(Br)cc2c(=O)n1NCc1nnc(N2C(=O)CSC2c2ccccc2)s1 (configuration not stated) | 60 |
| COc1ccc(C2SCC(=O)N2c2nnc(CNn3c(C)nc4ccccc4c3=O)s2)cc1 (configuration not stated) | 60 |
| COc1ccc(C2SCC(=O)N2c2nnc(CNn3c(C)nc4ccc(Br)cc4c3=O)s2)cc1 (configuration not stated) | 60 |
| Cc1nc2ccccc2c(=O)n1NCc1nnc(N2C(=O)CSC2c2ccc(O)cc2)s1 (configuration not stated) | 60 |
| Cc1nc2ccccc2c(=O)n1NCc1nnc(/N=C/c2ccccc2)s1 | 50 |
| COc1cccc(C2SCC(=O)N2c2nnc(CNn3c(C)nc4ccccc4c3=O)s2)c1 (configuration not stated) | 60 |
| COc1ccc(/C=N/c2nnc(CNn3c(C)nc4ccccc4c3=O)s2)cc1 | 50 |
| Cc1nc2ccc(Br)cc2c(=O)n1NCc1nnc(/N=C/c2ccc(N(C)C)cc2)s1 | 50 |
| Cc1nc2ccc(Br)cc2c(=O)n1NCc1nnc(N2C(=O)CSC2c2ccc(N(C)C)cc2)s1 (configuration not stated) | 60 |
| Cc1nc2ccccc2c(=O)n1NCc1nnc(/N=C/c2ccc(O)cc2)s1 | 50 |
| Cc1nc2ccc(Br)cc2c(=O)n1NCc1nnc(/N=C/c2ccc(O)cc2)s1 | 50 |
| COc1cc(C2SCC(=O)N2c2nnc(CNn3c(C)nc4ccc(Br)cc4c3=O)s2)ccc1O (configuration not stated) | 60 |
| COc1cccc(/C=N/c2nnc(CNn3c(C)nc4ccccc4c3=O)s2)c1 | 50 |
| Cc1nc2ccccc2c(=O)n1NCc1nnc(N2C(=O)CSC2c2ccccc2)s1 (configuration not stated) | 60 |
| COc1cc(/C=N/c2nnc(CNn3c(C)nc4ccccc4c3=O)s2)ccc1O | 50 |
| COc1cc(/C=N/c2nnc(CNn3c(C)nc4ccc(Br)cc4c3=O)s2)ccc1O | 50 |
| COc1cc(C2SCC(=O)N2c2nnc(CNn3c(C)nc4ccccc4c3=O)s2)ccc1O (configuration not stated) | 60 |
| Cc1nc2ccccc2c(=O)n1NCc1nnc(N2C(=O)CSC2c2ccc(N(C)C)cc2)s1 (configuration not stated) | 60 |
| COc1cccc(/C=N/c2nnc(CNn3c(C)nc4ccc(Br)cc4c3=O)s2)c1 | 50 |
| Cc1nc2ccccc2c(=O)n1NCc1nnc(/N=C/c2ccc(N(C)C)cc2)s1 | 50 |
| COc1ccc(/C=N/c2nnc(CNn3c(C)nc4ccc(Br)cc4c3=O)s2)cc1 | 50 |
| COc1cccc(C2SCC(=O)N2c2nnc(CNn3c(C)nc4ccc(Br)cc4c3=O)s2)c1 (configuration not stated) | 60 |
| Nc1nnc(-c2cccc(Cl)c2Cl)c(N)n1 [LAMOTRIGINE] | 90 |
| Cc1nc2ccc(Br)cc2c(=O)n1NCc1nnc(N2C(=O)CSC2c2ccc(O)cc2)s1 (configuration not stated) | 60 |
| Cc1nc2ccc(Br)cc2c(=O)n1NCc1nnc(/N=C/c2ccccc2)s1 | 50 |
